Experimental data from US20210094971A1, “HETEROCYCLIC COMPOUNDS” (Hoffmann-La Roche Inc., priority 2019, published 2021).

Target: T1, MAGL (Homo sapiens, UniProt Q99685)
T1 sequence (Q99685 1-303): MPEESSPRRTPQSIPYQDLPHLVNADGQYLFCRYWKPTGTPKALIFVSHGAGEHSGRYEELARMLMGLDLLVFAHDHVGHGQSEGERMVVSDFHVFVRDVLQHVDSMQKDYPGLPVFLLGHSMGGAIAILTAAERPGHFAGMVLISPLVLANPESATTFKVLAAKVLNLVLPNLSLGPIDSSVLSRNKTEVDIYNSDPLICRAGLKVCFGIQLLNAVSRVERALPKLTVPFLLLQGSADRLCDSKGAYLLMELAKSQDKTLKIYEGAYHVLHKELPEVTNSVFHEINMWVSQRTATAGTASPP
Assay: 2-AG assay (MAGL inhibitory activity, hydrolysis of 2-arachidonoylglycerol followed by mass spectrometry)
Type: biochemical
Conditions: 50 pM MAGL, 8 μM 2-arachidonoylglycerol, 15 min pre-incubation, 30 min incubation at RT
Protocol: Compounds were profiled for MAGL inhibitory activity by determining the enzymatic activity by following the hydrolysis of the natural substrate 2-arachidonoylglycerol resulting in arachidonic acid, which can be followed by mass spectrometry. This assay is hereinafter abbreviated “2-AG assay”.
The 2-AG assay was carried out in 384 well assay plates (PP, Greiner Cat# 784201) in a total volume of 20 μL. Compound dilutions were made in 100% DMSO (VWR Chemicals 23500.297) in a polypropylene plate in 3-fold dilution steps to give a final concentration range in the assay from 12.5 μM to 0.8 pM. 0.25 μL compound dilutions (100% DMSO) were added to 9 μL MAGL in assay buffer (50 mM TRIS (GIBCO, 15567-027), 1 mM EDTA (Fluka, 03690-100 ml), 0.01% (v/v) Tween. After shaking, the plate was incubated for 15 min at RT. To start the reaction, 10 μL 2-arachidonoylglycerol in assay buffer was added. The final concentrations in the assay was 50 pM MAGL and 8 μM 2-arachidonoylglyerol. After shaking and 30 min incubation at RT, the reaction was quenched by the addition of 40 μL of acetonitrile containing 4 μM of d8-arachidonic acid. The amount of arachidonic acid was traced by an online SPE system (Agilent Rapidfire) coupled to a triple quadrupole mass spectrometer (Agilent 6460). A C18 SPE cartridge (G9205A) was used in an acetonitrile/water liquid setup. The mass spectrometer was operated in negative electrospray mode following the mass transitions 303.1→259.1 for arachidonic acid and 311.1→267.0 for d8-arachidonic acid. The activity of the compounds was calculated based on the ratio of intensities [arachidonic acid/d8-arachidonic acid].

| Compound | IC50 [µM] |
| --- | --- |
| O=C1CO[C@H]2CCN(C(=O)N3C[C@H]4C[C@@H]3C[C@@H]4OCc3cc4c(cn3)CCCC4)C[C@H]2N1 (relative stereo) [Example 9, (4aR,8aS)-6-[rel-(1R,4R,5S)-5-(5,6,7,8-tetrahydroisoquinolin-3-ylmethoxy)-2-azabicyclo[2.2.1]heptane-2-carbonyl]-4,4a,5,7,8,8a-hexahydropyrido[4,3-b][1,4]oxazin-3-one] | 0.076 |
| O=C1CO[C@H]2CCN(C(=O)N3CC4CC(Oc5ccccc5Cl)CC4C3)C[C@H]2N1 (stereo partly drawn) [Example 1, (4aR,8aS)-6-(5-(2-chlorophenoxy)-3,3a,4,5,6,6a-hexahydro-1H-cyclopenta[c]pyrrole-2-carbonyl)-4,4a,5,7,8,8a-hexahydropyrido[4,3-b][1,4]oxazin-3-one] | 0.0089 |
| Cc1ccccc1OC1CC2CN(C(=O)N3CC[C@@H]4OCC(=O)N[C@@H]4C3)CC2C1 (stereo partly drawn) [Example 2, (4aR,8aS)-6-(5-(2-methylphenoxy)-3,3a,4,5,6,6a-hexahydro-1H-cyclopenta[c]pyrrole-2-carbonyl)-4,4a,5,7,8,8a-hexahydropyrido[4,3-b][1,4]oxazin-3-one] | 0.0198 |
| O=C1CO[C@H]2CCN(C(=O)N3CC4CN(S(=O)(=O)c5ccccc5)CC4C3)C[C@H]2N1 (stereo partly drawn) [Example 3, (4aR,8aS)-6-(5-(benzenesulfonyl)-1,3,3a,4,6,6a-hexahydropyrrolo[3,4-c]pyrrole-2-carbonyl)-4,4a,5,7,8,8a-hexahydropyrido[4,3-b][1,4]oxazin-3-one] | 2.28 |
| O=C1CO[C@H]2CCN(C(=O)N3CC4CN(S(=O)(=O)c5ccc(C(F)(F)F)cc5)CC4C3)C[C@H]2N1 (stereo partly drawn) [Example 4, (4aR,8aS)-6-(5-[4-(trifluoromethyl)phenyl]sulfonyl-1,3,3a,4,6,6a-hexahydropyrrolo[3,4-c]pyrrole-2-carbonyl)-4,4a,5,7,8,8a-hexahydropyrido[4,3-b][1,4]oxazin-3-one] | 0.929 |
| O=C1CO[C@H]2CCN(C(=O)N3CC4CN(S(=O)(=O)c5ccc(F)cc5Cl)CC4C3)C[C@H]2N1 (stereo partly drawn) [Example 5, (4aR,8aS)-6-(5-(2-chloro-4-fluoro-phenyl)sulfonyl-1,3,3a,4,6,6a-hexahydropyrrolo[3,4-c]pyrrole-2-carbonyl)-4,4a,5,7,8,8a-hexahydropyrido[4,3-b][1,4]oxazin-3-one] | 0.676 |
| O=C1CO[C@H]2CCN(C(=O)N3C[C@@H]4[C@H](C3)[C@H]4c3ccn(-c4ccc(F)cc4)n3)C[C@H]2N1 [Example 6, (4aR,8aS)-6-[(1R,5S,6r)-6-[1-(4-fluorophenyl)pyrazol-3-yl]-3-azabicyclo[3.1.0]hexane-3-carbonyl]-4,4a,5,7,8,8a-hexahydropyrido[4,3-b][l,4]oxazin-3-one] | 0.261 |
| O=C1CO[C@H]2CCN(C(=O)N3C[C@@H]4[C@H](C3)[C@H]4c3ccn(-c4ccc(F)c(C(F)(F)F)c4)n3)C[C@H]2N1 [Example 7, (4aR,8aS)-6-[(1R,5S,6r)-6-[1-[4-fluoro-3-(trifluoromethyl)phenyl]pyrazol-3-yl]-3-azabicyclo[3.1.0]hexane-3-carbonyl]-4,4a,5,7,8,8a-hexahydropyrido[4,3-b][1,4]oxazin-3-one] | 0.0453 |
| O=C1CO[C@H]2CCN(C(=O)N3C[C@@H]4[C@H](C3)[C@H]4c3ccn(-c4ccc(F)cc4Cl)n3)C[C@H]2N1 [Example 8, (4aR,8aS)-6-[(1R,5S,6r)-6-[1-(2-chloro-4-fluoro-phenyl)pyrazol-3-yl]-3-azabicyclo[3.1.0]hexane-3-carbonyl]-4,4a,5,7,8,8a-hexahydropyrido[4,3-b][1,4]oxazin-3-one] | 0.112 |
| O=C1CO[C@H]2CCN(C(=O)N3C[C@@H]4[C@@H](COc5ccc(F)cc5Cl)[C@@H]4C3)C[C@H]2N1 [Example 12, (4aR,8aS)-6-[(1R,5S,6r)-6-[(2-chloro-4-fluoro-phenoxy)methyl]-3-azabicyclo[3.1.0]hexane-3-carbonyl]-4,4a,5,7,8,8a-hexahydropyrido[4,3-b][1,4]oxazin-3-one] | 0.0063 |
| O=C1CO[C@H]2CCN(C(=O)N3CC4CCC(C3)C4COc3ccc(F)cc3Cl)C[C@H]2N1 (stereo partly drawn) [Example 13, (4aR,8aS)-6-[8-[(2-chloro-4-fluoro-phenoxy)methyl]-3-azabicyclo[3.2.1]octane-3-carbonyl]-4,4a,5,7,8,8a-hexahydropyrido[4,3-b][1,4]oxazin-3-one] | 0.0051 |
| O=C1CO[C@H]2CCN(C(=O)N3CC4CC(Oc5ccc(F)cc5Cl)CC4C3)C[C@H]2N1 (stereo partly drawn) [Example 14, (4aR,8aS)-6-[5-(2-chloro-4-fluoro-phenoxy)-3,3a,4,5,6,6a-hexahydro-1H-cyclopenta[c]pyrrole-2-carbonyl]-4,4a,5,7,8,8a-hexahydropyrido[4,3-b][1,4]oxazin-3-one] | 0.0035 |
| O=C1CO[C@H]2CCN(C(=O)N3CC4CC(C3)C4OCc3ccc(C(F)(F)F)cc3F)C[C@H]2N1 (stereo partly drawn) [Example 22, (4aR,8aS)-6-[6-[[2-fluoro-4-(trifluoromethyl)phenyl]methoxy]-3-azabicyclo[3.1.1]heptane-3-carbonyl]-4,4a,5,7,8,8a-hexahydropyrido[4,3-b][1,4]oxazin-3-one] | 0.217 |
| O=C1CO[C@H]2CCN(C(=O)N3[C@@H]4COC[C@H]3C[C@@H](OCc3ccc(C(F)(F)F)cc3F)C4)C[C@H]2N1 [Example 23, (4aR,8aS)-6-[(1S,5R)-7-[[2-fluoro-4-(trifluoromethyl)phenyl]methoxy]-3-oxa-9-azabicyclo[3.3.1]nonane-9-carbonyl]-4,4a,5,7,8,8a-hexahydropyrido[4,3-b][1,4]oxazin-3-one] | 0.628 |
| O=C1CO[C@H]2CCN(C(=O)N3[C@@H]4CC[C@H]3C[C@H](OCc3ccc(C(F)(F)F)cc3F)C4)C[C@H]2N1 [Example 24, (4aR,8aS)-6-[(1S,5R)-3-[[2-fluoro-4-(trifluoromethyl)phenyl]methoxy]-8-azabicyclo[3.2.1]octane-8-carbonyl]-4,4a,5,7,8,8a-hexahydropyrido[4,3-b][1,4]oxazin-3-one] | 0.0014 |

Second part, the compound after the results:

| IC50 [µM] | Compound |
| --- | --- |
| 1.05 | O=C1CO[C@H]2CCN(C(=O)N3C[C@@H]4C[C@H](OCc5ccc(C(F)(F)F)cc5F)[C@H]3C4)C[C@H]2N1 (relative stereo) [Example 18, (4aR,8aS)-6-[rel-(1R,4S,6S)-6-[[2-fluoro-4-(trifluoromethyl)phenyl]methoxy]-2-azabicyclo[2.2.1]heptane-2-carbonyl]-4,4a,5,7,8,8a-hexahydropyrido[4,3-b][1,4]oxazin-3-one] |
| 1.14 | O=C1CO[C@H]2CCN(C(=O)N3C[C@H]4C[C@@H]3[C@H](OCc3ccc(C(F)(F)F)cc3F)C4)C[C@H]2N1 (relative stereo) [Example 19, (4aR,8aS)-6-[rel-(1R,4S,6R)-6-[[2-fluoro-4-(trifluoromethyl)phenyl]methoxy]-2-azabicyclo[2.2.1]heptane-2-carbonyl]-4,4a,5,7,8,8a-hexahydropyrido[4,3-b][1,4]oxazin-3-one] |
| 0.011 | O=C1CO[C@H]2CCN(C(=O)N3CC4CC(OCc5ccc(F)cc5Cl)CC4C3)C[C@H]2N1 (stereo partly drawn) [Example 15, (4aR,8aS)-6-[5-[(2-chloro-4-fluoro-phenyl)methoxy]-3,3a,4,5,6,6a-hexahydro-1H-cyclopenta[c]pyrrole-2-carbonyl]-4,4a,5,7,8,8a-hexahydropyrido[4,3-b][1,4]oxazin-3-one] |
| 0.0859 | O=C1CO[C@H]2CCN(C(=O)N3CC4CC(OCc5ccc(C(F)(F)F)cc5F)CC4C3)C[C@H]2N1 (stereo partly drawn) [Example 16, (4aR,8aS)-6-[5-[[2-fluoro-4-(trifluoromethyl)phenyl]methoxy]-3,3a,4,5,6,6a-hexahydro-1H-cyclopenta[c]pyrrole-2-carbonyl]-4,4a,5,7,8,8a-hexahydropyrido[4,3-b][1,4]oxazin-3-one] |
| 0.0047 | O=C1CO[C@H]2CCN(C(=O)N3CC4CC(Oc5ccc(C(F)(F)F)cc5F)CC4C3)C[C@H]2N1 (stereo partly drawn) [Example 17, (4aR,8aS)-6-[5-[2-fluoro-4-(trifluoromethyl)phenoxy]-3,3a,4,5,6,6a-hexahydro-1H-cyclopenta[c]pyrrole-2-carbonyl]-4,4a,5,7,8,8a-hexahydropyrido[4,3-b][1,4]oxazin-3-one] |
| 0.032 | O=C1CO[C@H]2CCN(C(=O)N3C[C@@H]4[C@@H](COc5ccc(C(F)(F)F)cc5F)[C@@H]4C3)C[C@H]2N1 [Example 25, (4aR,8aS)-6-[(1R,5S,6r)-6-[[2-fluoro-4-(trifluoromethyl)phenoxy]methyl]-3-azabicyclo[3.1.0]hexane-3-carbonyl]-4,4a,5,7,8,8a-hexahydropyrido[4,3-b][1,4]oxazin-3-one] |
